Source: ChEMBL document CHEMBL4229542 (Bioorg Med Chem Lett, 2018)

How the values were obtained:
[1] = Intrinsic clearance in rat liver microsomes assessed per mg protein; assay type: ADME, microsome; details: read-out: CLH
[2] = Intrinsic clearance in human liver microsomes assessed per mg protein; assay type: ADME, microsome; details: read-out: CLH
[3] = Permeability from apical to basolateral side in human Caco2 cells; assay type: ADME, cell-based; details: Caco-2, read-out: permeability
[4] = Intrinsic clearance in mouse liver microsomes assessed per mg protein; assay type: ADME, microsome; details: read-out: CLH
[5] = Fraction unbound in rat plasma; assay type: ADME, cell-free
[6] = molecular target: Cytochrome P450 2C9 (Homo sapiens, UniProt P11712); assay: Inhibition of CYP2C9 (unknown origin); assay type: ADME
[7] = Half life in rat at 0.5 mg/kg, po; assay type: ADME, organism-based; details: in vivo
[8] = molecular target: Cytochrome P450 2C19 (Homo sapiens, UniProt P33261); assay: Inhibition of CYP2C19 (unknown origin); assay type: ADME
[9] = molecular target: EGFR (Homo sapiens, UniProt P00533); assay: Inhibition of EGFR (unknown origin) at 1 uM relative to control
[10] = molecular target: Cytochrome P450 3A4 (Homo sapiens, UniProt P08684); assay: Inhibition of CYP3A4 (unknown origin); assay type: ADME
[11] = Fraction unbound in mouse plasma; assay type: ADME, cell-free
[12] = Fraction unbound in human plasma; assay type: ADME, cell-free
[13] = molecular target: T1, Cytochrome P450 2B6 (Homo sapiens, UniProt P20813); assay: Inhibition of CYP2B6 (unknown origin); assay type: ADME
T1 sequence (P20813 whole entry): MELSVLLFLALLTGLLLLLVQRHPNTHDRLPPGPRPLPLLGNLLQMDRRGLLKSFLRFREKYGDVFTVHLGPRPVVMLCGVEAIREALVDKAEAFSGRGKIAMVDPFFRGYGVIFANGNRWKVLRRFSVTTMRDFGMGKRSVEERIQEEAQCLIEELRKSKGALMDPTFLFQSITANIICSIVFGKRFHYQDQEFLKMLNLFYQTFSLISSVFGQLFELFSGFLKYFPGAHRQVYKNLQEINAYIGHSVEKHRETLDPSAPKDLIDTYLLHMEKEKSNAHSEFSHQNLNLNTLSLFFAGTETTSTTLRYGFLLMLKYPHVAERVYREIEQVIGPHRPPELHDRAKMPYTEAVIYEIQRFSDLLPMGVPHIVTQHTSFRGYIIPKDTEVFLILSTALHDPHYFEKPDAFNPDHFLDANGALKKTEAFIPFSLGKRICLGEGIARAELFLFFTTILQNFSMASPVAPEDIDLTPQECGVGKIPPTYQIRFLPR

[14] = Oral bioavailability in rat at 0.5 mg/kg; assay type: ADME, organism-based; details: in vivo
[15] = molecular target: Tyrosine-protein kinase Blk (Homo sapiens) (UniProt P51451); assay: Inhibition of Blk (unknown origin) at 1 uM relative to control
[16] = molecular target: T2, Cytoplasmic tyrosine-protein kinase BMX (Homo sapiens) (UniProt P51813); assay: Inhibition of BMX (unknown origin) at 1 uM relative to control
T2 sequence (whole entry): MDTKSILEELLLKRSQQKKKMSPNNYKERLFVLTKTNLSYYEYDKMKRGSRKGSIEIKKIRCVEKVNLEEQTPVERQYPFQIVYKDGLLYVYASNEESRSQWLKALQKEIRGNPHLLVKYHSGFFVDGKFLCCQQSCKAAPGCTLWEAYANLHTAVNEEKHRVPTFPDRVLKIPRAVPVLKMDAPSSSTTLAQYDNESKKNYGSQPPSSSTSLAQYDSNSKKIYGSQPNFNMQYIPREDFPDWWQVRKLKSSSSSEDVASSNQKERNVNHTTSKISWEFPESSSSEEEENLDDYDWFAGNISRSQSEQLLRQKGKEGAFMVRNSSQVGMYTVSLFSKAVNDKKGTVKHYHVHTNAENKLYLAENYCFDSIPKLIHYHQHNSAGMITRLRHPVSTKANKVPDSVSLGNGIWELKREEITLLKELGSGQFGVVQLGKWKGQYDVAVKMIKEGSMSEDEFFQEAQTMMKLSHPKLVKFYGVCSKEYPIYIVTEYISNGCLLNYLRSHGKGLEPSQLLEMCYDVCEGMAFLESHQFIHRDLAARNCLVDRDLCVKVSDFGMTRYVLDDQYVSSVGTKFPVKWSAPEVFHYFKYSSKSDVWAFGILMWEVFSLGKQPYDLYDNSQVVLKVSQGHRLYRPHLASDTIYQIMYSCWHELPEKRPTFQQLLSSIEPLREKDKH

[17] = molecular target: T3, Cytochrome P450 2C8 (Homo sapiens, UniProt P10632); assay: Inhibition of CYP2C8 (unknown origin); assay type: ADME
T3 sequence (P10632 whole entry): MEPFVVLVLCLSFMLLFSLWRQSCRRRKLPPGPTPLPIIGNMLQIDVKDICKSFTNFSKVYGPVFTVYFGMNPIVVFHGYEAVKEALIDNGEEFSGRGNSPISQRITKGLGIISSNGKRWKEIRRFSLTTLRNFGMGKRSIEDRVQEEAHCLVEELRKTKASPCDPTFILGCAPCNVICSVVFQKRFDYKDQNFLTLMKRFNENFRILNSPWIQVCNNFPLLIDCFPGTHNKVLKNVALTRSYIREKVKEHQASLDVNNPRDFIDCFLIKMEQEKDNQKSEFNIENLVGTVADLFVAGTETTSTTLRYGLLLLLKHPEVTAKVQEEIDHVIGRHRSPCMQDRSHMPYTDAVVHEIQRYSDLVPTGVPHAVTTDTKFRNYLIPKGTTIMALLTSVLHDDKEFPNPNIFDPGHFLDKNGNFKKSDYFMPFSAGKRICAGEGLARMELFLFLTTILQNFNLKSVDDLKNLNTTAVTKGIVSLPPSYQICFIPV

[18] = molecular target: T4, Tyrosine-protein kinase TXK (Homo sapiens) (UniProt P42681); assay: Inhibition of TXK (unknown origin) at 1 uM relative to control
T4 sequence (whole entry): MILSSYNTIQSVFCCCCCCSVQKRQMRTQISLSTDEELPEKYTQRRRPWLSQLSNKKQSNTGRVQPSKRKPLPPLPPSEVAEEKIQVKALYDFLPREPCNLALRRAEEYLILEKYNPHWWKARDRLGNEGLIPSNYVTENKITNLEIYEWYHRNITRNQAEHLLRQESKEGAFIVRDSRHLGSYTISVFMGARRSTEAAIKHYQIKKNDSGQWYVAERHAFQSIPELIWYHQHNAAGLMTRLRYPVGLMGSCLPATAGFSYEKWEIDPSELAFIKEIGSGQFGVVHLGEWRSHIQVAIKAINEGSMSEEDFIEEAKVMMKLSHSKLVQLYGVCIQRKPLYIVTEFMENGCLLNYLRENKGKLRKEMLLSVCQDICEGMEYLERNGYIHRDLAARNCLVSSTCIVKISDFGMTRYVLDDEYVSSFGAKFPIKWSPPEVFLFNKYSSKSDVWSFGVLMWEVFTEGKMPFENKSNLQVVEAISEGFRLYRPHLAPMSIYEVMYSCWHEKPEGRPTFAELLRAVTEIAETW

[19] = test system: Rattus norvegicus; assay: Volume of distribution at steady state in rat at 0.5 mg/kg, po; assay type: ADME, organism-based; details: in vivo
[20] = Clearance in rat at 0.5 mg/kg, po; details: in vivo
[21] = molecular target: Voltage-gated inwardly rectifying potassium channel KCNH2 (Homo sapiens, UniProt Q12809); assay: Binding affinity to human ERG
[22] = molecular target: Tyrosine-protein kinase BTK (Homo sapiens, UniProt Q06187); assay: Inhibition of BTK (unknown origin)
Tyrosine-protein kinase BTK, sequence (Q06187 whole entry): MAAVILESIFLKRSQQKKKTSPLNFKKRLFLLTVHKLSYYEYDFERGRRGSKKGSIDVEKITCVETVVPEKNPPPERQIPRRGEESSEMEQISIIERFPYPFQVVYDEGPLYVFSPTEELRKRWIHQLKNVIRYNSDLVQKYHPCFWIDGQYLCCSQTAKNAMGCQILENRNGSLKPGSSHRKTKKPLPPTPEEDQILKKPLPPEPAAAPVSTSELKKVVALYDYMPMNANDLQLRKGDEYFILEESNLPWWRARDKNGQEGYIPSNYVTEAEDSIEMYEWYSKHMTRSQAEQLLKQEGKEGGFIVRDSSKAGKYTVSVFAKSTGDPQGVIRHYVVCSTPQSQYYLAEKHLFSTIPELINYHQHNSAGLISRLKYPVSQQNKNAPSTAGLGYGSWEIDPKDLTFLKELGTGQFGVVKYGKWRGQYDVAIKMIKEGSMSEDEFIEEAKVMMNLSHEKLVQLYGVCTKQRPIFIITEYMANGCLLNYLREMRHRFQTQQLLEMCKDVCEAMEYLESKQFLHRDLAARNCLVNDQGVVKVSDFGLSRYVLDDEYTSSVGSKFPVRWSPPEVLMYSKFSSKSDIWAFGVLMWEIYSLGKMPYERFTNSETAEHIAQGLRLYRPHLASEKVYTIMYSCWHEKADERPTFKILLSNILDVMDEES

EGFR, sequence (P00533 whole entry): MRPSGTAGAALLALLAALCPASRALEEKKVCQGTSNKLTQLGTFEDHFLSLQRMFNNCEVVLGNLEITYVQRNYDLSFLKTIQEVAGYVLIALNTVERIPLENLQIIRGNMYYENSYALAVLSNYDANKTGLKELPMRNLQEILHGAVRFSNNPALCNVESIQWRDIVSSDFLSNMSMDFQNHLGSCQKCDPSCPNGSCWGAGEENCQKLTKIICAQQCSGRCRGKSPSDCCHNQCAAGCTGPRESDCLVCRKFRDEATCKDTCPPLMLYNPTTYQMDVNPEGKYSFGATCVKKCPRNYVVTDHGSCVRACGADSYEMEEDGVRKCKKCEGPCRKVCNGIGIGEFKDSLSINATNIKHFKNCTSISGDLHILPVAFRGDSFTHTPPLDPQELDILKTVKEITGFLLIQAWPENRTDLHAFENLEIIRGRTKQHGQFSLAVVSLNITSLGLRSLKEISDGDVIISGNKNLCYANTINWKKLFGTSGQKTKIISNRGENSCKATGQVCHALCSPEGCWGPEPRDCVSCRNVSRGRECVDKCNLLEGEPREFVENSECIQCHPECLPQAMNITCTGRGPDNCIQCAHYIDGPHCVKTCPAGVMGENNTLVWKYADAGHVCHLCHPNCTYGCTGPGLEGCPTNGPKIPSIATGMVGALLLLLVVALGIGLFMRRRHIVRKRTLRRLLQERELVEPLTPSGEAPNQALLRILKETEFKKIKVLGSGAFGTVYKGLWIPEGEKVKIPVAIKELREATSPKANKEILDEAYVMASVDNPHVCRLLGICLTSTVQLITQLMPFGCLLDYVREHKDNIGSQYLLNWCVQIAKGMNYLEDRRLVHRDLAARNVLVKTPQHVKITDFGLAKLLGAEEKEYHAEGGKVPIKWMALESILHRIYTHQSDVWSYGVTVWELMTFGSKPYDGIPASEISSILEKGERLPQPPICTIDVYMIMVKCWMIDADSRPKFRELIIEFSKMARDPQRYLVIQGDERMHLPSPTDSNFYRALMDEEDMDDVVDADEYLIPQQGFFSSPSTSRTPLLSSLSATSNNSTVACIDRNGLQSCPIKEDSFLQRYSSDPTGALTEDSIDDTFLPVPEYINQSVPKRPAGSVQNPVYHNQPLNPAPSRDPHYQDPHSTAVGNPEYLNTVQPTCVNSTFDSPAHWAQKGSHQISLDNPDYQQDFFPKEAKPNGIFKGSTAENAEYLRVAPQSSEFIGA
Cytochrome P450 2C9, sequence (P11712 whole entry): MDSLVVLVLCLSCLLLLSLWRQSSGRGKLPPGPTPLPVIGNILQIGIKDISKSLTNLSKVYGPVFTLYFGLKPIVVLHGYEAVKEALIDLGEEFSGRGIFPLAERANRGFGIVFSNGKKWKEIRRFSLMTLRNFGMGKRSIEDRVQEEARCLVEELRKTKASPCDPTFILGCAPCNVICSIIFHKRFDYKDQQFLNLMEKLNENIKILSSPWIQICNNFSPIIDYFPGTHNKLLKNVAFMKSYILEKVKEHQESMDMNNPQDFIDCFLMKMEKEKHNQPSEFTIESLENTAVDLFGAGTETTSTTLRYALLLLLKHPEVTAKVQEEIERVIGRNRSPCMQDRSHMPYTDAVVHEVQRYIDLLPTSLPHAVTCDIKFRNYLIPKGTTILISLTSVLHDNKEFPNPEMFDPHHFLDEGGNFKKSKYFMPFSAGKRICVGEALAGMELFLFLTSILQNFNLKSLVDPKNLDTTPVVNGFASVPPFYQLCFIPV
Cytochrome P450 2C19, sequence (P33261 whole entry): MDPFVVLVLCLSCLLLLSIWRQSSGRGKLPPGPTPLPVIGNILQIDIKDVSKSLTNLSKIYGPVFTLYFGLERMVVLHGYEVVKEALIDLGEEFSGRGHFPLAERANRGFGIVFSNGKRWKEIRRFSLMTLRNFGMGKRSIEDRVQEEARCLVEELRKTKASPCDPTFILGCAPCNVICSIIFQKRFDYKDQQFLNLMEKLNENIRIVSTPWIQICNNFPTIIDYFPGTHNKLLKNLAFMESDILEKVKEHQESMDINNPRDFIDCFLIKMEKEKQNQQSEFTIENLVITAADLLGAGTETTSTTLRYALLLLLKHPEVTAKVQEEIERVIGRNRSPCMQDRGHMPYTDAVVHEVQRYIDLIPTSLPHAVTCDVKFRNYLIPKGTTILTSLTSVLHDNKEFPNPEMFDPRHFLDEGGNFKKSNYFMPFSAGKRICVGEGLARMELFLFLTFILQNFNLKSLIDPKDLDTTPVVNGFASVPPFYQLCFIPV
Tyrosine-protein kinase Blk (Homo sapiens), sequence (P51451 2-505 limits assumed): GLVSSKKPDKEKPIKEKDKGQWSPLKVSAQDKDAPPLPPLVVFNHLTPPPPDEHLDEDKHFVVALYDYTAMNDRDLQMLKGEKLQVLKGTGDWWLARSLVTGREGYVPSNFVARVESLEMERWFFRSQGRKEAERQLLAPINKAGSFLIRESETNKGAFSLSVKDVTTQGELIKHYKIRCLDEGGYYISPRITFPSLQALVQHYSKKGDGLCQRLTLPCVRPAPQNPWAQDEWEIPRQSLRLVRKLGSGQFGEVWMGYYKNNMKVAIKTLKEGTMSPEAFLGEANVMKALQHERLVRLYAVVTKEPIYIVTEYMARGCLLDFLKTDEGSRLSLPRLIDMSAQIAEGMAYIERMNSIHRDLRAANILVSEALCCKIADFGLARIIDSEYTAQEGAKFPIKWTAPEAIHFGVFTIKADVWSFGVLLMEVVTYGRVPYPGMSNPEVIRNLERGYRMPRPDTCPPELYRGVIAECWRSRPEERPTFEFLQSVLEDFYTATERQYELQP
Cytochrome P450 3A4, sequence (P08684 whole entry): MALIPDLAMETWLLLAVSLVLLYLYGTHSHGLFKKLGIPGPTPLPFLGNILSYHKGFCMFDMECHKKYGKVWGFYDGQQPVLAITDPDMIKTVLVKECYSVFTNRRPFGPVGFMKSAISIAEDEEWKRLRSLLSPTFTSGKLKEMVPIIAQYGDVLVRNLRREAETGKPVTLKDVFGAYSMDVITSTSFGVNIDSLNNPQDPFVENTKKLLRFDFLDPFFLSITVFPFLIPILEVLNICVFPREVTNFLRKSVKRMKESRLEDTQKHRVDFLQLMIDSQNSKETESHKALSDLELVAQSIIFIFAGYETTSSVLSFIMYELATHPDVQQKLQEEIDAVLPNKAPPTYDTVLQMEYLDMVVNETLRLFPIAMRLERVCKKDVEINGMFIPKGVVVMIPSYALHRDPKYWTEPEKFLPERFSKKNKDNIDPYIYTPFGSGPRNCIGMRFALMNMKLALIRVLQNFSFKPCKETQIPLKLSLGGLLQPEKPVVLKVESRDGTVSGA
Voltage-gated inwardly rectifying potassium channel KCNH2, sequence (Q12809 whole entry): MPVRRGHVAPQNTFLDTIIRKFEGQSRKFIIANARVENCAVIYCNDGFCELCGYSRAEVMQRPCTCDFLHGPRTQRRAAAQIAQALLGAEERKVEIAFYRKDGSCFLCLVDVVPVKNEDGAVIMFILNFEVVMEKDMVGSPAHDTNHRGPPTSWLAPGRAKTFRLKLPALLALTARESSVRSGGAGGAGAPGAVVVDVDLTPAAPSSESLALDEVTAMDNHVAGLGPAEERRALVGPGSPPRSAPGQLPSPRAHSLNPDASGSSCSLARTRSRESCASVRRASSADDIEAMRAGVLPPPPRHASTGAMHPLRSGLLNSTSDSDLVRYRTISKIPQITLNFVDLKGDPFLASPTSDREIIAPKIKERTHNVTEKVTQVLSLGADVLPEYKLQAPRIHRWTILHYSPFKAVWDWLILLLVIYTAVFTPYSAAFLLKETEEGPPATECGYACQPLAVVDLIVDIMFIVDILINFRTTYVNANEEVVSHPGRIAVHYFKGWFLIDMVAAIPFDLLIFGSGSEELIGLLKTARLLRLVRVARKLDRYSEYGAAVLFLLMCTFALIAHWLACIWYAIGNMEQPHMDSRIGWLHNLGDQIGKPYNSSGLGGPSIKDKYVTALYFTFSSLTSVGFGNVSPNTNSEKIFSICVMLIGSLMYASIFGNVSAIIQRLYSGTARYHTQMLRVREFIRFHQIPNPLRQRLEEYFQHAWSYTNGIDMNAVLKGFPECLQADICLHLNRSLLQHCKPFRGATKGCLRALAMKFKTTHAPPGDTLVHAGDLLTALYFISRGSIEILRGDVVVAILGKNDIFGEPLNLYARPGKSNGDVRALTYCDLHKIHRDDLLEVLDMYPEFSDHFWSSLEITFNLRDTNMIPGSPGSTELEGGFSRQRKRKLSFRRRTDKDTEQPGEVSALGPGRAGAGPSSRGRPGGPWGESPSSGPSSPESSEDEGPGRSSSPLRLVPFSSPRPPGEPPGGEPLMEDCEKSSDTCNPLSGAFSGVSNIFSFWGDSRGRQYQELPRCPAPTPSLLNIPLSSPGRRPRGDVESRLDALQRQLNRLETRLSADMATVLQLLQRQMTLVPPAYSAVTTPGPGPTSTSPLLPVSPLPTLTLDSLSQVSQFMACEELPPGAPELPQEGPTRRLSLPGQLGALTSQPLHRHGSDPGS

microsomal CLint [1] [µL/min/mg]	microsomal CLint [2] [µL/min/mg]	Papp A→B [3] [×10⁻⁶ cm/s]	microsomal CLint [4] [µL/min/mg]	SMILES	also measured
136	156	10	191	C=CC(=O)N1CC[C@@H](Nc2ccc(C(N)=O)c(Oc3ccc(Oc4ccccc4)cc3)n2)C1	–
1000	309	–	488	C=CC(=O)N[C@@H]1CCCN(c2ccc(C(N)=O)c(Oc3ccc(Oc4ccccc4)cc3)n2)C1	–
21	10	14	27	C=CC(=O)N[C@H]1CCN(c2ccc(C(N)=O)c(Oc3ccc(Oc4ccccc4)cc3)n2)C1	–
148	33	8	472	C=CC(=O)N1C[C@H]2C[C@@H]1CN2c1ccc(C(N)=O)c(Oc2ccc(Oc3ccccc3)cc2)n1	–
203	74	6.7 to 6.8	62	C=CC(=O)N1C[C@@H]2C[C@H]1CN2c1ccc(C(N)=O)c(Oc2ccc(Oc3ccccc3)cc2)n1	fraction unbound [5]: 0.0031; inhibition [15]: 96%; half-life [7]: 43.2 min; inhibition [16]: 95%; IC50 [17]: 0.1 µM; inhibition [18]: 54%; Vdss [19]: 0.86 L/kg; fraction unbound [11]: 0.002; CL/F [20]: 20.7 mL/min/kg; fraction unbound [12]: 0.0046; Ki [21]: 2.2 µM; bioavailability [14]: 47%
97	< 10	13	18	C=CC(=O)N1CCN(c2ccc(C(N)=O)c(Oc3ccc(Oc4ccccc4)cc3)n2)CC1	–
–	–	–	–	C=CC(=O)N[C@H]1CCN(c2ccc(C(N)=O)c(Oc3ccc(C(=O)N4CCOCC4)cc3)n2)C1	IC50 [22]: 10 µM
–	–	–	–	C=CC(=O)N[C@H]1CCN(c2ccc(C(N)=O)c(Nc3ccc(C(=O)N4CCOCC4)cc3)n2)C1	IC50 [22]: 0.0016 µM
254	125	3	228	C=CC(=O)N1CC[C@H](Nc2ccc(C(N)=O)c(Oc3ccc(Oc4ccccc4)cc3)n2)C1	–
302	140	–	562	C=CC(=O)NCC1CCCN(c2ccc(C(N)=O)c(Oc3ccc(Oc4ccccc4)cc3)n2)C1 (configuration not stated)	–

SMILES	microsomal CLint [1] [µL/min/mg]	microsomal CLint [2] [µL/min/mg]	Papp A→B [3] [×10⁻⁶ cm/s]	microsomal CLint [4] [µL/min/mg]	also measured
C=CC(=O)N1CCC[C@@H](n2nc(-c3ccc(Oc4ccccc4)cc3)c3c(N)ncnc32)C1 [IBRUTINIB]	–	–	7.2	–	fraction unbound [5]: 0.02; IC50 [6]: 8.5 µM; half-life [7]: 30 min; IC50 [8]: 19 µM; inhibition at 1 µM [9]: > 50%; IC50 [10]: 11 µM; fraction unbound [11]: 0.017; fraction unbound [12]: 0.025; IC50 [13]: 11.1 µM; bioavailability [14]: 12%
C=CC(=O)N1C2CCC1CN(c1ccc(C(N)=O)c(Oc3ccc(Oc4ccccc4)cc3)n1)C2	145	106	0.6	315	–
C=CC(=O)N1C2CC1CN(c1ccc(C(N)=O)c(Oc3ccc(Oc4ccccc4)cc3)n1)C2	167	49	–	647	–
